# Laboratory results published in PMC5120204, “Identification of an orally active small-molecule PTHR1 agonist for the treatment of hypoparathyroidism” (Nature Communications, 2016).
# What was measured:
# [1] = biological target: T1, hPTHR1 (Homo sapiens, UniProt Q03431); assay: Phospholipase C activity assay ([3H]-inositol phosphate) in COS-7 cells expressing hPTHR1; format: cell-based; conditions: COS-7 cells expressing hPTHR1, 40 min; concentration that achieves the EC50 for hPTH(1–34)
# T1 construct: similar to that of cells expressing full-length hPTHR1; expressed in transfected cells; host or cells: COS-7 (transient, FuGENE HD)
# T1 sequence (Q03431 27-593 E93Y/D94P/K95Y/E96D/A97V/T99D/G100Y/S101A): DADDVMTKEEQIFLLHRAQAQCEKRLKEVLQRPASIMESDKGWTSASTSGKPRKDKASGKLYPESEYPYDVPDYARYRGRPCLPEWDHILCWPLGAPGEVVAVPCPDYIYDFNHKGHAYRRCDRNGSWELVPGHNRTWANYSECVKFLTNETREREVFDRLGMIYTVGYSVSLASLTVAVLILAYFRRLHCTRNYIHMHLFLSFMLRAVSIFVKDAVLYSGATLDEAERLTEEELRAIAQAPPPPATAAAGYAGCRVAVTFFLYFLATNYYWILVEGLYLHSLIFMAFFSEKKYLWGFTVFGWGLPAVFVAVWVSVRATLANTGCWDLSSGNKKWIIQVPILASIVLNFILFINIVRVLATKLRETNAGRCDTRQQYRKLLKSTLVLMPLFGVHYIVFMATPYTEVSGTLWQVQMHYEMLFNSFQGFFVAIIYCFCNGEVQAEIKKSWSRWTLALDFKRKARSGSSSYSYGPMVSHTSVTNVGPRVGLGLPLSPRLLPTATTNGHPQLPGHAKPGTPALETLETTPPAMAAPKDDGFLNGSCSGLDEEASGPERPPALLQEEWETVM
# Method: COS-7 cells (ATCC) were seeded into a 96-well flat-bottomed plate (1.4 × 10^4 cells per 100 μl per well) and incubated overnight. The next day, the COS-7 cells were transfected by adding 10 μl of a mixture of hPTHR1 plasmid or empty vector (0.1 μg per well), FuGENE HD Transfection Reagent (0.4 μl per well, Promega), and Opti-MEM I Reduced Serum Medium (10 μl per well, Life Technologies) to each well. On the second day after the cells were seeded into the plate, the culture medium in the wells was discarded, and 100 μl of ^3H-myoinositol/0.1% BSA/DMEM adjusted to 111 kBq ml^−1 (PerkinElmer, Inc.) was added to each well. […] After that, the ^3H radioactivity was measured using a liquid scintillation analyzer. EC50 values were determined from three independent experiments in […] by a non-linear regression Emax model (JMP ver.9.0.2, SAS Institute). […] The geometric means of the EC50 values obtained in three experiments in duplicate were calculated using Microsoft Office Excel 2007.
# [2] = system: TPTX rats; assay: Single administration study in TPTX rats; format: in vivo, rat; conditions: TPTX rats, single oral administration
# Method: TPTX was carried out in 6-week-old female Crl:CD(SD) rats (Charles River Laboratories). Rats with serum Ca levels of <8.0 mg dl^−1 at 5 days after surgery were used for the experiment. The rats were divided into six groups, each with a similar mean value of serum Ca levels and body weight. TPTX rats were treated once orally (vehicle or PCO371 at 1.3, 6.5 or 33 mg kg^−1) or subcutaneously (vehicle or hPTH(1–84) (Chugai Pharmaceutical) at 9 nmol kg^−1). Six TPTX rats were assigned to each dose group. The sample size was determined based on previous experiments and a published study with hPTHs and LA-PTH in our laboratories[24] (n=5–6). Vehicle for PCO371 was the same as in the OVX rat study, and phosphate-citrate buffer (pH 6.0) was used as vehicle for hPTH(1–84). Under isoflurane anaesthesia, jugular vein blood was collected immediately before and at 1, 2, 6, 10 and 24 h after administrations to measure serum Ca (o-CPC method, Wako Pure Chemical Industries) and Pi levels (xanthine oxidase method, Wako Pure Chemical Industries).
# In another experiment, the effects of a single treatment with PCO371 or hPTH(1–34) on serum Ca and Pi in TPTX rats (6-week-old) were evaluated at the dose of 3, 9.5 or 30 mg kg^−1 (PCO371, p.o.) or 9 nmol kg^−1 (hPTH(1–34), s.c.) according to the same method as that described above.
smiles,measurement,setting,value
"Cc1cc(N2C(=O)NC(=O)C2(C)C)cc(C)c1CCS(=O)(=O)N1CCC2(CC1)N=C(c1ccc(OC(F)(F)F)cc1)NC2=O [PCO371, 1-{3,5-dimethyl-4-[2-({4-oxo-2-[4-(trifluoromethoxy)phenyl]-1,3,8-triazaspiro[4.5]dec-1-en-8-yl}sulfonyl)ethyl]phenyl}-5,5-dimethylimidazolidine-2,4-dione]",EC50,[1],17 µM
same,serum Ca,[2],dose-dependently increased
same,serum Pi,[2],decreased
